# From patent US20110165266A1 (priority 2008, published 2011)
# System: ASLV-A vector RCASBP(A)-AP
# Format: cell-based, avian sarcoma and leukosis virus (ASLV-A)
structure (smiles),measurement,value
[O-][Cl+2]([O-])O [chlorate],influence on infection by ASLV-A vector,did not influence infection
